Here are results for eleven molecules from patent US7667044B2, “Compounds for the treatment of neurological disorders” (Probiodrug AG, priority 2003, dated 2010).

Structures are written as SMILES.

One may read the Ki as the equilibrium dissociation constant of an inhibitor or competing ligand from its target. As usually defined, the IC50 is the concentration that inhibits the measured activity by half.

Test [1] deals with T1, Recombinant human prolyl oligopeptidase (Homo sapiens, UniProt P48147).
T1 construct: made in house; host or cells: E. coli
T1 sequence (P48147 1-710): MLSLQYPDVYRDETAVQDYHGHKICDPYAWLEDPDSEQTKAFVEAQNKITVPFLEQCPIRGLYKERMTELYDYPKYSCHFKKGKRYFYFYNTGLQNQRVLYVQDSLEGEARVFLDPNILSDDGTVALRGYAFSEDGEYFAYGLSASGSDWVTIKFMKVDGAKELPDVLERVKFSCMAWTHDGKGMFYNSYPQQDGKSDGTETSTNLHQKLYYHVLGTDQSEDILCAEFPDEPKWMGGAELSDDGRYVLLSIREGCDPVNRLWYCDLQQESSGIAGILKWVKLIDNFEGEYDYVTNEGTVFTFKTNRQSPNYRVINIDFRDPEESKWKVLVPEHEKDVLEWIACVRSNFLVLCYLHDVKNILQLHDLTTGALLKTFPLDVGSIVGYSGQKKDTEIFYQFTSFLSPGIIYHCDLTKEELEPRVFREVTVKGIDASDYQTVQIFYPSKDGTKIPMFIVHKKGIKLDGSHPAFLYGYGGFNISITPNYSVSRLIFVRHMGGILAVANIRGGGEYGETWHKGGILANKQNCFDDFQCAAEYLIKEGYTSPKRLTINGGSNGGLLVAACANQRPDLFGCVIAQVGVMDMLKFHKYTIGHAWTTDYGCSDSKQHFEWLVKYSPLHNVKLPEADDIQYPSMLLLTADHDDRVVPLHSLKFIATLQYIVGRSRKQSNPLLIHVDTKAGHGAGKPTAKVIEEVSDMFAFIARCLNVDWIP
Put plainly: Determination of IC50- and Ki-values of PEP-inhibitors, chromogenic substrate Cbz-Gly-L-Pro-pNA. The format is biochemical. The settings on record: for Ki: 4 substrate and 7 inhibitor concentrations, competitive inhibition fit, pH 7.6, 30° C.; for IC50: substrate 0.15 mM Cbz-Gly-L-Pro-pNA, HEPES buffer pH 7.6, 30° C. As to the method: Recombinant human prolyl oligopeptidase was used for measurement. Recombinant expression was performed in E. coli under standard conditions as described elsewhere in the state of the art.
For activity measurements the chromogenic substrate Cbz-Gly-L-Pro-pNA was used in HEPES buffer pH 7.6 containing 50 mM HEPES, 200 mM NaCl, 1 mM EDTA, 1 mM DTT, 0.006% Brij35. Measurements were carried out at 30° C. Release of pNA were monitored continuously at 405 nm.
IC50 values were calculated using non-linear regression to a 4-parameter equation (Prism 4.0, GraphPad).
Calculations were performed by multiple non-linear regression analysis to the equation for competitive inhibition using GraFit 5.0 Software (Erithacus Software).

Another test concerns human glial U-343 cells. In words: IL-6 ELISA, basal secretion of IL-6 into conditioned medium. It is filed as cell-based. The settings on record: inhibitor 20 μM, 24 hours, serum-free medium, untreated = 100%, read-out: Extracellular IL-6 concentration, % of untreated cells. How it is done: To analyze basal secretion of IL-6, human glial U-343 cells were cultured in 6 well plates (1.5×10^6 cells/well, Greiner) and treated with specific PEP inhibitors as indicated (20 μM each) for 24 hours in serum-free D-MEM medium (invitrogen). Aliquots of 40 μl conditioned medium were used to quantify the amount of secreted IL-6 by an human-specific IL-6 ELISA (Biosource) following the manufacturer's instructions. All data were obtained in quadruplicate. For the calculation of the IL-6 concentration in the cell culture medium after PEP-inhibitor treatment, the basal IL-6 concentration of the cell culture medium of untreated cell samples was set to 100%. The results of the measurement of the IL-6 concentration with PEP-inhibitor treated cells are presented as % of the untreated cell samples.

Test [2] has as its system human neuroblastoma SH-SY5Y cells. In words: β-Amyloid ELISA, secreted β-amyloid peptides in conditioned medium. It is filed as cell-based. The following applies: Aβ 1-42 (FIG. 2), inhibitor 20 μM, 24 hours, untreated = 100%, read-out: Extracellular Aβ-concentration, % of control. As to the method: The human glioma cell line, U-343 and the human neuroblastoma cell line, SH-SY5Y were maintained in Dulbecco's modified Eagle's medium (DMEM) containing 10% fetal bovine serum (Gibco BRL, Karlsruhe, Germany) and incubated at 37° C. in a 5% CO2 atmosphere. Culture media contained in general 60 μg/ml gentamycin (Gibco BRL, Karlsruhe, Germany).
To quantify intracellular and extracellular concentrations of β-amyloid peptides, 1-40 and 142, U-343 and SH-SY5Y cells were cultured in 6 well plates (1.5×10^6 cells/well) and treated with specific PEP inhibitors (20 μM each) for 24 hours. For quantitation of secreted β-amyloid peptides the conditioned medium was collected and concentrated by lyophylisation. Likewise, after determination of the cell numbers/well (casy cell counter I, Schärfe System, Reutlingen, Germany), cells were lyzed with cell extraction buffer (Biosource, Solingen, Germany) according to the manufacturer's protocol. The protein concentration was determined by the method of Bradford (1976). Aliquots of 100 μl were used to quantify β-amyloid peptides 1-40 and 1-42 in quadruplicate by ELISA, (IBL, Hamburg, Germany) following the manufacturer's instructions. All obtained intracellular and extracellular concentrations were normalized to cell numbers and protein concentration, respectively.
For the calculation of the concentration of β-amyloid peptides 1-40 and 1-42 in the cell culture medium after PEP-inhibitor treatment, the basal concentration of β-amyloid peptides 1-40 and 1-42 in the cell culture medium of untreated cell samples was set to 100%. The results of the measurement of the concentration of β-amyloid peptides 1-40 and 1-42 with PEP-inhibitor treated cells are presented as % of the untreated cell samples.
In general terms: An ELISA detects its analyte on a solid surface through an enzyme-linked reagent.

With `O=C(N[C@H](Cc1ccccc1)C(=O)N1CCCC1C(=O)c1nc2ccccc2s1)OCc1ccccc1` (stereo partly drawn) [Example 1, 2-[Cbz-L-Phe-L-Pro]Benzothiazole], in test [1], the Ki came out at 0.057 nM and the IC50 came out at 6 nM. The activity at 20 µM in the test on human glial U-343 cells came out at 14.3%. The activity at 20 µM in test [2] came out at 447%.
The matching figures for `C[C@@H](NC(=O)OCc1ccccc1)C(=O)N1CCC[C@H]1C(=O)c1nc2ccccc2s1` [Example 2, 2-[Cbz-L-Ala-L-Pro]Benzothiazole]: 0.033 nM, 0.12 nM, 20.1% and 123%.
Turning to `C[C@H](NC(=O)[C@@H](Cc1ccccc1)NC(=O)OCc1ccccc1)C(=O)c1nc2ccccc2s1` [Example 3, 2-[Cbz-L-Phe-L-Ala]Benzothiazole], the IC50 in test [1] stood at 1400 nM. For the same molecule, the figures for the activity at 20 µM (with human glial U-343 cells; in test [2]) were 35.2% and 546%, respectively.
Take `O=C(N[C@@H](Cc1ccccc1)C(=O)N1CCC[C@H]1C(=O)c1nccs1)OCc1ccccc1` [Example 4, 2-[Cbz-L-Phe-L-Pro]Thiazole]: in test [1], the Ki came out at 6.8 nM and the IC50 came out at 15 nM. Also, the activity at 20 µM with human glial U-343 cells amounted to 14.6%. Also, the activity at 20 µM in test [2] stood at 519%.
With `N=C(N)NCCC[C@H](NC(=O)OCc1ccccc1)C(=O)N1CCC[C@H]1C(=O)c1nc2ccccc2s1` [Example 5, 2-[Cbz-L-Arg-L-Pro]Benzothiazole], in test [1], the Ki came to 3.2 nM and the IC50 is 5.4 nM. In the test on human glial U-343 cells, the activity at 20 µM was determined as 109%. The activity at 20 µM in test [2] worked out at 94%.
On to `O=C(O)C[C@H](NC(=O)OCc1ccccc1)C(=O)N1CCC[C@H]1C(=O)c1nc2ccccc2s1` [Example 6, 2-[Cbz-L-Asp-L-Pro]Benzothiazole], for which, in test [1], the Ki was found to be 12 nM and the IC50 is 17 nM. The activity at 20 µM in the test on human glial U-343 cells stood at 58%. Moreover, the activity at 20 µM in test [2] came to 96.2%.
On the same counts, the results for `C=CCOC(=O)N[C@@H](Cc1ccccc1)C(=O)N1CCC[C@H]1C(=O)c1nc2ccccc2s1` [Example 7, 2-[Aloc-L-Phe-L-Pro]Benzothiazole] are 8.2 nM, 9.7 nM, 17% and 528%.
Consider `NCCCC[C@H](NC(=O)OCc1ccccc1)C(=O)N1CCC[C@H]1C(=O)c1nc2ccccc2s1` [Example 8, 2-[Cbz-L-Lys-L-Pro]Benzothiazole], for which, in test [1], the Ki is 0.038 nM and the IC50 came to 2 nM. In the test with human glial U-343 cells, the activity at 20 µM was determined as 160%. In test [2], the activity at 20 µM worked out at 87.5%.
Regarding `CC(C)(C)OC(=O)N[C@@H](Cc1ccccc1)C(=O)N1CCC[C@H]1C(=O)c1nc2ccccc2s1` [Example 9, 2-[Boc-L-Phe-L-Pro]Benzothiazole], in test [1], the inhibitory constant (Ki) is 6 nM and the IC50 was found to be 29 nM. In the test on human glial U-343 cells, the activity at 20 µM was 33.1%. For the same molecule, the activity at 20 µM in test [2] was found to be 368%.
Regarding `C[C@H](NC(=O)OCc1ccccc1)C(=O)N1CCC[C@H]1C(=O)c1nccs1` [Example 10, 2-[Cbz-L-Ala-L-Pro]Thiazole], in test [1], the Ki came out at 2.6 nM and the IC50 came to 4.3 nM. The activity at 20 µM in the test on human glial U-343 cells stood at 66%. Further, the activity at 20 µM in test [2] worked out at 157%.
As for `O=C(N[C@@H](Cc1ccccc1)C(=O)N1CCC[C@H]1C(=O)c1ccc[nH]1)OCc1ccccc1` [Example 11], the Ki in test [1] stood at 2.9 nM. For the same molecule, the IC50 in test [1] was 7600 nM. The activity at 20 µM amounted to 52.1% with human glial U-343 cells and 340% in test [2].
